US10336762B2 (priority 2017, dated 2019)
Like-named read-outs stand apart in the source and are kept apart here.

Experiments:
[1] = test system: TNFα; experiment: cells; type: cell-based, human; conditions: LPS-stimulated human monocytes, read-out: EC50 TNF
[2] = target: IRAK4 enzyme (Homo sapiens (Human), UniProt Q9NWZ3); experiment: biochemical; type: biochemical; conditions: IRAK4 enzyme, 500 μM ATP
[3] = Homo sapiens, Monocyte, TNFα by TR-FRET
[4] = Homo sapiens, Monocyte, TNFα content

IRAK4 enzyme, sequence (Q9NWZ3 whole entry): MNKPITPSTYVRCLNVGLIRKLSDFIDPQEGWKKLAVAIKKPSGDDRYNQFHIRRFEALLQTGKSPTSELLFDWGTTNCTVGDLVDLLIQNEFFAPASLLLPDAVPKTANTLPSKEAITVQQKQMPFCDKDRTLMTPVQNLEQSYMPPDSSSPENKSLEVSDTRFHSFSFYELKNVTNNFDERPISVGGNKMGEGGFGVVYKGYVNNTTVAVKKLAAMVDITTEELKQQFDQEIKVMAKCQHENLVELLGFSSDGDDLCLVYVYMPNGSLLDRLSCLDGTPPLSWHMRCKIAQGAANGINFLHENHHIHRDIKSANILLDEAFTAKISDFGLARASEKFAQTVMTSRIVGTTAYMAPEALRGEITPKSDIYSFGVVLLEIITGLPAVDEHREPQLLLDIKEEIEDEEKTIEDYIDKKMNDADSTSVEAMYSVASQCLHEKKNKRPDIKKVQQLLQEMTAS

| SMILES | EC50 [1, 3] | IC50 ([2]; TR-FRET) | EC50 [1, 4] | IC50 ([2]; TR-FRET (HTRF)) | EC50 ([1]; TNFα by TR-FRET) |
| --- | --- | --- | --- | --- | --- |
| COC(=O)NC[C@H]1C[C@H](Nc2cc(-c3ccc4cc(C#N)cnn34)ncc2C(=O)NCCC(C)(C)NC(=O)OC(C)(C)C)C1 [Example 816, methyl (((1r,3r)-3-((5-((3-((tert-butoxy-carbonyl)amino)-3-methylbutyl)carbamoyl)-2-(3-cyanopyrrolo[1,2-b]pyridazin-7-yl)pyridin-4-yl)amino)cyclobutyl)methyl)carbamate] | 41 nM | < 1 nM |  |  |  |
| CC(C)(O)[C@H](F)CNC(=O)c1cnc(-c2ccc3cc(C#N)cnn23)cc1Nc1ccc(N2CCN(C3COC3)CC2)nc1 [Example 871, (R)-6-(3-cyanopyrrolo[1,2-b]pyridazin-7-yl)-N-(2-fluoro-3-hydroxy-3-methylbutyl)-4-((6-(4-(oxetan-3-yl)piperazin-1-yl)pyridin-3-yl)amino)nicotinamide] | 51 nM | 1 nM |  |  |  |
| CN(C)C(=O)OC[C@H]1C[C@H](Nc2cc(-c3ccc4cc(C#N)cnn34)ncc2C(=O)NC[C@@H](F)C(C)(C)O)C1 [Example 734, ((1R,3r)-3-((2-(3-cyanopyrrolo[1,2-b]pyridazin-7-yl)-5-(((R)-2-fluoro-3-hydroxy-3-methylbutyl)carbamoyl)pyridin-4-yl)amino)cyclo-butyl)methyldimethyl-carbamate] |  |  | 29 nM | < 1 nM |  |
| CC(C)(O)[C@H](F)CNC(=O)c1cnc(-c2ccc3cc(C#N)cnn23)cc1Nc1ccccc1C#N [Example 143, (R)-4-((2-cyanophenyl)amino)-6-(3-cyanopyrrolo[1,2-b]pyridazin-7-yl)-N-(2-fluoro-3-hydroxy-3-methylbutyl)nicotinamide] |  | 18 nM | 720 nM |  |  |
| CC(=O)N[C@H]1C[C@@H](Nc2cc(-c3ccc4cc(C#N)cnn34)ncc2C(=O)NC[C@@H](F)C(C)(C)O)C1 [Example 458, 4-(((1s,3S)-3-acetamidocyclobutyl)amino)-6-(3-cyano-pyrrolo[1,2-b]pyridazin-7-yl)-N-((R)-2-fluoro-3-hydroxy-3-methylbutyl)nicotinamide] |  |  | 2470 nM | 3 nM |  |
| CC(C)(C)OC(=O)N1CC2(CC(Nc3cc(-c4ccc5cc(C#N)cnn45)ncc3C(=O)NC[C@@H](F)C(C)(C)O)C2)C1 [Example 448, (R)-tert-butyl 6-((2-(3-cyanopyrrolo[1,2-b]pyridazin-7-yl)-5-((2-fluoro-3-hydroxy-3-methylbutyl)carbamoyl)pyridin-4-yl)amino)-2-azaspiro[3.3]heptane-2-carboxylate] |  |  | 2040 nM | 32 nM |  |
| CC(C)(O)[C@H](F)CNC(=O)c1cnc(-c2ccc3cc(C#N)cnn23)cc1NC1CCOCC1 [Example 42, (R)-6-(3-cyanopyrrolo[1,2-b]pyridazin-7-yl)-N-(2-fluoro-3-hydroxy-3-methylbutyl)-4-((tetrahydro-2H-pyran-4-yl)amino)nicotinamide] |  | < 1 nM | 35 nM |  |  |
| CC(C)(O)[C@H](F)CNC(=O)c1cnc(-c2ccc3cc(C#N)cnn23)cc1Nc1cnn(C2CNCC2(F)F)c1 (single isomer, unassigned) [Example 869] |  | < 1 nM |  |  | 14 nM |
| CC(C)(O)[C@H](F)CNC(=O)c1cnc(-c2ccc3cc(C#N)cnn23)cc1NC12CCC(O)(CC1)C2 [Example 403, (R)-6-(3-cyanopyrrolo[1,2-b]pyridazin-7-yl)-N-(2-fluoro-3-hydroxy-3-methylbutyl)-4-((4-hydroxybicyclo[2.2.1]heptan-1-yl)amino) nicotinamide] |  |  | 14 nM | < 1 nM |  |
| CC(=O)Nc1cncc(NC(=O)c2cnc(-c3ccc4cc(C#N)cnn34)cc2NC(C)C)c1 [Example 491, N-(5-acetamidopyridin-3-yl)-6-(3-cyanopyrrolo[1,2-b]pyridazin-7-yl)-4-(isopropylamino) nicotinamide] |  |  | 219 nM | 19 nM |  |
| CC(C)Nc1cc(-c2ccc3cc(C#N)cnn23)ncc1C(=O)NCc1ccc(=O)[nH]c1 [Example 157, 6-(3-cyanopyrrolo[1,2-b]pyridazin-7-yl)-4-(isopro-pylamino)-N-((6-oxo-1,6-dihydropyridin-3-yl)methyl) nicotinamide] |  | 23 nM | 501 nM |  |  |
